{
  "source": "patent EP3587389A1",
  "about": "(INSTYTUT FARMACEUTYCZNY, priority 2018, dated 2020)",
  "key": {"[1]": {"assay": "DPPH free radical scavenging assay", "conditions": "for pIC50: 30 min at room temperature, absorbance at 517 nm; for scavenging abilities (in words): DPPH assay", "description": "J Nat Prod. 2010 Feb 26; 73(2): 252-4. doi: 10.1021/np900519d.) with a modification. Briefly, different concentrations of the compounds (100 µl) were mixed with 900 µl of the 0.04 mg/ml methanolic solution of DPPH. The mixture was kept at room temperature for 30 min, and then the absorbance at 517 nm was measured. The half maximal inhibitory concentration (IC50) was used as an indicating measure of the scavenging activity."}, "[2]": {"assay": "Oxidation inhibition of the o/w emulsion (lipid peroxidation, TBARS)", "conditions": "for o/w emulsion (Inhibition of the oxidation (%)) / o/w emulsion (Inhibition of the oxidation), footnoted symbol: determined at 100 µM, flaxseed oil emulsion, oxidation induced with Mohr's salt, TBARS; for protection against the induced oxidation (in words): o/w emulsion model", "description": "The emulsion was prepared according to the method described in Zarnowski R. et al., The oil of Adenanthera pavonina L. seeds and its emulsions. Z Naturforsch C. 2004;59(5-6):321-326; Jaromin A. et al., Emulsions of oil from Adenanthera pavonina L. seeds and their protective effect Cell Mol Biol Lett 2006; 11(3): 438-448). Briefly, 15 mg of sorbitan sesquioleate was added to 50 mg of flaxseed oil and vigorously mixed for 20 min. Then, 2 ml of an aqueous phase consisting of 10 mM Tris-HCl buffer, pH 7.4, was added. The sample was further vortexed for 15 min. and sonicated (Sonics & Materials Inc., Newton, CT, USA) for 10 min. in a coldwater bath. Then, 20 µl of the 1:1 (v/v) buffer diluted emulsion, methanolic solution of each compound (final concentration 100 µM) and 10 mM Tris-HCl buffer, pH 7.4, were mixed and incubated at room temperature for 10 min. To induce oxidation, 100 µl of freshly prepared aqueous solution of ammonium iron(II) sulfate hexahydrate (Mohr's salt) (5 mM) was added (total volume of the sample was 1 ml) and the samples were incubated at room temperature for 15 min. Flaxseed oil emulsion without any compound addition was included as control. After the oxidation step, determination of the thiobarbituric acid reacting substances (TBARS) was performed (Buege J.A., Aust S.D., Microsomal lipid peroxidation. Methods Enzymol. 1978;52:302-310). 2 ml of the thiobarbituric acid (TBA) reagent (15% trichloroacetic acid, 0.25 N HCl and 0.5% TBA) was added to each sample, mixed and heated at 100°C for 30 min. After centrifugation at 13 000 rpm for 10 min, the absorbance of the supernatants was measured at 535 nm. The obtained values were used to calculate the % of the oxidation inhibition according to the following equation: Inhibition of the oxidation (%) = [1−(absorbance of the sample/absorbance of control)] × 100 [formula]"}},
  "note": "pIC50: −log10 of the molar value.",
  "data": [
    {"smiles": "O=C(O)/C=C/c1ccc(O)c(O)c1", "note": "[CA, Caffeic acid]", "values": [
      {"measurement": "pIC50", "setting": "[1]", "result": 4.49},
      {"measurement": "o/w emulsion (Inhibition of the oxidation (%))", "setting": "[2]", "result": "26.1 ± 2.9", "unit": "%"}
    ]},
    {"smiles": "CC(=O)/C=C/c1ccccc1O", "note": "[Compound 6, 4-(2'-hydroxyphenyl)-3(E)-buten-2-one]", "values": [
      {"measurement": "pIC50", "setting": "[1]", "result": "< 2.30"},
      {"measurement": "scavenging abilities (in words)", "setting": "[1]", "result": "no scavenging abilities"},
      {"measurement": "o/w emulsion (Inhibition of the oxidation), footnoted symbol", "setting": "[2]", "result": "n.a.^b (no protection detected)"}
    ]},
    {"smiles": "COC(=O)/C=C/c1ccc(O)cc1", "note": "[Compound 8, 3-(4'-Hydroxyphenyl)-(E)-propenoic acid methyl ester]", "values": [
      {"measurement": "pIC50", "setting": "[1]", "result": "< 2.30"},
      {"measurement": "scavenging abilities (in words)", "setting": "[1]", "result": "no scavenging abilities"},
      {"measurement": "o/w emulsion (Inhibition of the oxidation (%))", "setting": "[2]", "result": "22.7 ± 6.4", "unit": "%"}
    ]},
    {"smiles": "COC(=O)/C=C/c1ccccc1O", "note": "[Compound 9, 3-(2'-Hydroxyphenyl)-(E)-propenoic acid methyl ester]", "values": [
      {"measurement": "pIC50", "setting": "[1]", "result": "< 2.30"},
      {"measurement": "scavenging abilities (in words)", "setting": "[1]", "result": "no scavenging abilities"},
      {"measurement": "o/w emulsion (Inhibition of the oxidation (%))", "setting": "[2]", "result": "2.6 ± 1.5", "unit": "%"}
    ]},
    {"smiles": "COC(=O)/C=C/c1cccc(O)c1", "note": "[Compound 10, 3-(3'-Hydroxyphenyl)-(E)-propenoic acid methyl ester]", "values": [
      {"measurement": "pIC50", "setting": "[1]", "result": "< 2.30"},
      {"measurement": "scavenging abilities (in words)", "setting": "[1]", "result": "no scavenging abilities"},
      {"measurement": "o/w emulsion (Inhibition of the oxidation (%))", "setting": "[2]", "result": "18.4 ± 2.2", "unit": "%"}
    ]},
    {"smiles": "COC(=O)/C=C/c1ccc(O)cc1O", "note": "[Compound 11, 3-(2',4'-dihydroxyphenyl)-(E)-propenoic acid methyl ester]", "values": [
      {"measurement": "pIC50", "setting": "[1]", "result": 2.99},
      {"measurement": "o/w emulsion (Inhibition of the oxidation (%))", "setting": "[2]", "result": "33.7 ± 6.5", "unit": "%"}
    ]},
    {"smiles": "COC(=O)/C=C/c1ccc(O)c(O)c1O", "note": "[Compound 12, 3-(2',3',4'-trihydroxyphenyl)-(E)-propenoic acid methyl ester]", "values": [
      {"measurement": "pIC50", "setting": "[1]", "result": 4.73},
      {"measurement": "o/w emulsion (Inhibition of the oxidation (%))", "setting": "[2]", "result": "55.5 ± 2", "unit": "%"},
      {"measurement": "protection against the induced oxidation (in words)", "setting": "[2]", "result": "highest protection against the induced oxidation"}
    ]},
    {"smiles": "COC(=O)/C=C/c1cc(O)c(O)cc1O", "note": "[Compound 13, 3-(2',4',5'-trihydroxyphenyl)-(E)-propenoic acid methyl ester]", "values": [
      {"measurement": "pIC50", "setting": "[1]", "result": 4.27},
      {"measurement": "o/w emulsion (Inhibition of the oxidation (%))", "setting": "[2]", "result": "38.6 ± 2.3", "unit": "%"},
      {"measurement": "protection against the induced oxidation (in words)", "setting": "[2]", "result": "highest protection against the induced oxidation"}
    ]},
    {"smiles": "COC(=O)/C=C/c1ccc(O)c(OC)c1", "note": "[Compound 14, 3-(4'-hydroxy-3-metoxyphenyl)-(E)-propenoic acid methyl ester]", "values": [
      {"measurement": "pIC50", "setting": "[1]", "result": 4.23},
      {"measurement": "o/w emulsion (Inhibition of the oxidation (%))", "setting": "[2]", "result": "14.8 ± 2", "unit": "%"}
    ]},
    {"smiles": "CC(=O)/C=C/c1cccc(O)c1", "note": "[Compound 15, 4-(3'-hydroxyphenyl)-3(E)-buten-2-one]", "values": [
      {"measurement": "scavenging abilities (in words)", "setting": "[1]", "result": "no scavenging abilities"},
      {"measurement": "o/w emulsion (Inhibition of the oxidation), footnoted symbol", "setting": "[2]", "result": "n.a.^b (no protection detected)"}
    ]},
    {"smiles": "CC(=O)/C=C/c1ccc(O)cc1", "note": "[Compound 16, 4-(4'-hydroxyphenyl)-3(E)-buten-2-one]", "values": [
      {"measurement": "pIC50", "setting": "[1]", "result": "< 2.30"},
      {"measurement": "scavenging abilities (in words)", "setting": "[1]", "result": "no scavenging abilities"},
      {"measurement": "o/w emulsion (Inhibition of the oxidation (%))", "setting": "[2]", "result": "6.8 ± 4.4", "unit": "%"}
    ]},
    {"smiles": "CC(=O)/C=C/c1ccc(O)cc1O", "note": "[Compound 17, 4-(2',4'-dihydroxyphenyl)-3(E)-buten-2-one]", "values": [
      {"measurement": "pIC50", "setting": "[1]", "result": 3.16},
      {"measurement": "o/w emulsion (Inhibition of the oxidation (%))", "setting": "[2]", "result": "4.6 ± 1.3", "unit": "%"}
    ]},
    {"smiles": "CC(=O)/C=C/c1ccc(O)c(O)c1O", "note": "[Compound 18, 4-(2',3',4'-trihydroxyphenyl)-3(E)-buten-2-one]", "values": [
      {"measurement": "pIC50", "setting": "[1]", "result": 4.77},
      {"measurement": "o/w emulsion (Inhibition of the oxidation (%))", "setting": "[2]", "result": "28.6 ± 4", "unit": "%"},
      {"measurement": "protection against the induced oxidation (in words)", "setting": "[2]", "result": "highest protection against the induced oxidation"}
    ]},
    {"smiles": "COc1cc(/C=C/C(C)=O)ccc1O", "note": "[Compound 20, 4-(3'-methoxy-4'-hydroxyphenyl)-3(E)-buten-2-one]", "values": [
      {"measurement": "pIC50", "setting": "[1]", "result": 4.21},
      {"measurement": "o/w emulsion (Inhibition of the oxidation (%))", "setting": "[2]", "result": "7.9 ± 2.1", "unit": "%"}
    ]}
  ]
}
